{
  "source": "paper PMC9266550",
  "about": "“The 2-hydroxy-3-(4-aryl-1-piperazinyl)propyl Phthalimide Derivatives as Prodrugs—Spectroscopic and Theoretical Binding Studies with Plasma Proteins” (International Journal of Molecular Sciences, 2022)",
  "data": [
    {"target": "T1, bovine α1-acid glycoprotein (AAG), orosomucoid (Bos taurus, UniProt Q3SZR3)", "T1 construct": "gene ORM1; native plasma glycoprotein, commercial (Sigma-Aldrich), mature form", "T1 sequence (Q3SZR3 19-202)": "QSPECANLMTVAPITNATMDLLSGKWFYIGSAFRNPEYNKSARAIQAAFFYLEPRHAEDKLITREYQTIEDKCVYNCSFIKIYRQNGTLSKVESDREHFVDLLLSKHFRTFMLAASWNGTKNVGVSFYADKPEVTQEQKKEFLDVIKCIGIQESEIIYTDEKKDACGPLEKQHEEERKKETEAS", "test": "intrinsic fluorescence quenching, excitation […] nm", "type": "binding", "details": "297 K, phosphate buffer pH 7.5; double-log", "values": [
      {"molecule": "O=C1c2ccccc2C(=O)N1CC(O)CN1CCN(C(c2ccccc2)c2ccccc2)CC1", "note": "(centres unmarked) [F4]", "Binding / Kb × 10^3 [dm^3.mol^-1]": "2.75 × 10^3 dm^3·mol^−1"},
      {"molecule": "O=C1c2ccccc2C(=O)N1CC(O)CN1CCN(c2ccccc2)CC1", "note": "(centres unmarked) [F1]", "Binding / Kb × 10^3 [dm^3.mol^-1]": "2.12 × 10^3 dm^3·mol^−1"},
      {"molecule": "O=C1c2ccccc2C(=O)N1CC(O)CN1CCN(c2cccc(C(F)(F)F)c2)CC1", "note": "(centres unmarked) [F3]", "Binding / Kb × 10^3 [dm^3.mol^-1]": "4.17 × 10^3 dm^3·mol^−1"},
      {"molecule": "COc1ccccc1N1CCN(CC(O)CN2C(=O)c3ccccc3C2=O)CC1", "note": "(centres unmarked) [F2]", "Binding / Kb × 10^3 [dm^3.mol^-1]": "1.21 × 10^3 dm^3·mol^−1"}
    ]},
    {"target": "T2, bovine serum albumin (BSA) (Bos taurus, UniProt P02769)", "T2 construct": "gene ALB; native plasma protein, commercial (Sigma-Aldrich), mature form", "T2 sequence (P02769 25-607)": "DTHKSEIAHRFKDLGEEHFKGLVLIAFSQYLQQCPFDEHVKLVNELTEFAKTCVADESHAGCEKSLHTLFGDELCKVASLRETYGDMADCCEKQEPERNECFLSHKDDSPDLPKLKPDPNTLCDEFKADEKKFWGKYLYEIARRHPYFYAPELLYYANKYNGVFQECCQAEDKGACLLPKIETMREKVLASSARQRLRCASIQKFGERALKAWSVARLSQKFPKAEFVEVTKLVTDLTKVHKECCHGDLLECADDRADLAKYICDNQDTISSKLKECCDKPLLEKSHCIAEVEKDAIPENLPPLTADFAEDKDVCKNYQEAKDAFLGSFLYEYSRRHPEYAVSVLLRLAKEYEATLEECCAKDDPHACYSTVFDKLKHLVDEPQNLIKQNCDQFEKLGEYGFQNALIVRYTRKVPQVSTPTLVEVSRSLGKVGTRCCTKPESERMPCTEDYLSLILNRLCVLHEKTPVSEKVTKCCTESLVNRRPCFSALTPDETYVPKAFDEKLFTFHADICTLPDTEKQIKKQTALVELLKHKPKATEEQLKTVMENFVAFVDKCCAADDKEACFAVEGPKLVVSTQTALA", "test": "intrinsic fluorescence quenching, excitation […] nm", "type": "binding", "details": "297 K, phosphate buffer pH 7.5, no site marker; double-log", "values": [
      {"molecule": "O=C1c2ccccc2C(=O)N1CC(O)CN1CCN(C(c2ccccc2)c2ccccc2)CC1", "note": "(centres unmarked) [F4]", "Binding / Kb × 10^5 [dm^3.mol^-1]": "1.99 × 10^5 dm^3·mol^−1"},
      {"molecule": "O=C1c2ccccc2C(=O)N1CC(O)CN1CCN(c2ccccc2)CC1", "note": "(centres unmarked) [F1]", "Binding / Kb × 10^5 [dm^3.mol^-1]": "2.13 × 10^5 dm^3·mol^−1"},
      {"molecule": "O=C1c2ccccc2C(=O)N1CC(O)CN1CCN(c2cccc(C(F)(F)F)c2)CC1", "note": "(centres unmarked) [F3]", "Binding / Kb × 10^5 [dm^3.mol^-1]": "1.75 × 10^5 dm^3·mol^−1"},
      {"molecule": "COc1ccccc1N1CCN(CC(O)CN2C(=O)c3ccccc3C2=O)CC1", "note": "(centres unmarked) [F2]", "Binding / Kb × 10^5 [dm^3.mol^-1]": "0.55 × 10^5 dm^3·mol^−1"}
    ]}
  ]
}
